Assay results reported in ChEMBL document CHEMBL5344442, “Antiviral Activity of Lipophilic Nucleoside Tetraphosphate Compounds” (J Med Chem, 2024).

Tests used:
[1] = Lipophilicity of the compound assessed as retention time by RP-18-HPLC analysis; format: physicochemical
[2] = system: Human immunodeficiency virus 1; experiment: Antiviral activity against HIV-1 HE infected in human CEM/0 cells assessed as inhibition of virus-induced cytopathogenicity measured after 4 to 5 days by microscopic analysis; format: functional, organism-based; conditions: Human immunodeficiency virus 1, HE, CCRF-CEM
[3] = system: Human immunodeficiency virus 2; experiment: Antiviral activity against HIV-2 ROD infected in human CEM/0 cells assessed as inhibition of virus-induced cytopathogenicity measured after 4 to 5 days by microscopic analysis; format: functional, organism-based; conditions: Human immunodeficiency virus 2, ROD, CCRF-CEM
[4] = system: Human immunodeficiency virus 2; experiment: Antiviral activity against HIV-2 ROD infected in human CEM/TK- cells assessed as inhibition of virus-induced cytopathogenicity measured after 4 to 5 days by microscopic analysis; format: functional, organism-based; conditions: Human immunodeficiency virus 2, ROD, CCRF-CEM
[5] = Selectivity index, ratio of CC50 for cytotoxicity against human CEM/0 cells to EC50 for antiviral activity against HIV-2 ROD infected in human CEM/0 cells; format: toxicity, cell-based; conditions: read-out: Ratio CC50/EC50
[6] = Drug metabolism in PBS buffer assessed as d4TMP metabolite formation at pH 7.3 by RP-18-HPLC analysis; format: ADME
[7] = Drug metabolism assessed as d4TTP metabolite formation in presence of pig liver esterase by RP-18-HPLC analysis; format: ADME, Sus scrofa; conditions: isolated protein
[8] = Drug metabolism in human CEM/0 cells assessed as half life of d4TTP by RP18-HPLC analysis; format: ADME, cell-based; conditions: ccrf-cem
[9] = Drug metabolism in human CEM/0 cells assessed as d4TDP metabolite formation by RP18-HPLC analysis; format: ADME, cell-based; conditions: ccrf-cem
[10] = Drug metabolism assessed as [hydroxy-[hydroxy-[hydroxy-[[(2S,5R)-5-(5-methyl-2,4-dioxo-pyrimidin-1-yl)-2,5-dihydrofuran-2-yl]methoxy]phosphoryl]oxy-phosphoryl]oxy-phosphoryl]oxy-octadecyl-phosphinic acid formation in presence of pig liver esterase by RP-18-HPLC analysis; format: ADME, Sus scrofa; conditions: isolated protein
[11] = Drug metabolism in human CEM/0 cells assessed as [hydroxy-[hydroxy-[hydroxy-[[(2S,5R)-5-(5-methyl-2,4-dioxo-pyrimidin-1-yl)-2,5-dihydrofuran-2-yl]methoxy]phosphoryl]oxy-phosphoryl]oxy-phosphoryl]oxy-octadecyl-phosphinic acid formation by RP18-HPLC analysis; format: ADME, cell-based; conditions: ccrf-cem
[12] = Drug metabolism in human CEM/0 cells assessed as d4TTP metabolite formation by RP18-HPLC analysis; format: ADME, cell-based; conditions: ccrf-cem
[13] = Selectivity index, ratio of CC50 for cytotoxicity against human CEM/TK- cells to EC50 for antiviral activity against HIV-2 ROD infected in human CEM/TK- cells; format: toxicity, cell-based; conditions: read-out: Ratio CC50/EC50
[14] = Drug metabolism assessed as [hydroxy-[hydroxy-[hydroxy-[[(2S,5R)-5-(5-methyl-2,4-dioxo-pyrimidin-1-yl)-2,5-dihydrofuran-2-yl]methoxy]phosphoryl]oxy-phosphoryl]oxy-phosphoryl] octadecyl hydrogen phosphate formation in presence of pig liver esterase by RP-18-HPLC analysis; format: ADME, Sus scrofa; conditions: isolated protein
[15] = Drug metabolism in human CEM/0 cells assessed as [hydroxy-[hydroxy-[hydroxy-[[(2S,5R)-5-(5-methyl-2,4-dioxo-pyrimidin-1-yl)-2,5-dihydrofuran-2-yl]methoxy]phosphoryl]oxy-phosphoryl]oxy-phosphoryl] octadecyl hydrogen phosphate formation by RP18-HPLC analysis; format: ADME, cell-based; conditions: ccrf-cem
[16] = Drug metabolism in citrate-stabilized human plasma assessed as [hydroxy-[hydroxy-[hydroxy-[[(2S,5R)-5-(5-methyl-2,4-dioxo-pyrimidin-1-yl)-2,5-dihydrofuran-2-yl]methoxy]phosphoryl]oxy-phosphoryl]oxy-phosphoryl] octadecyl hydrogen phosphate formation by RP18-HPLC analysis; format: ADME, cell-free
[17] = Drug metabolism in citrate-stabilized human plasma assessed as d4T formation by RP-18-HPLC analysis; format: ADME, cell-free

SMILES | Retention_time [1] [min] | selectivity ratio [5] | Drug metabolism [7] | Drug metabolism [9] | further results
CCCCCCCCCCCCCCCCCCOP(=O)(OCCCCCCCCCCCCCCCCCC)OP(=O)(O)OP(=O)(O)OP(=O)(O)OC[C@@H]1C=C[C@H](n2cc(C)c(=O)[nH]c2=O)O1 | 20.7 |  |  |  | 
CCCCCCCCCCCCCCCCCCOP(=O)(OCCCC)OP(=O)(O)OP(=O)(O)OC[C@@H]1C=C[C@H](n2cc(C)c(=O)[nH]c2=O)O1 (some centres not stated) |  |  |  |  | EC50 [2]: 0.07 µM; EC50 [3]: 0.041 µM; EC50 [4]: 0.032 µM
Cc1cn([C@H]2C=C[C@@H](COP(=O)(O)OP(=O)(O)OP(=O)(O)OP(=O)(O)O)O2)c(=O)[nH]c1=O | 10.2 | 454 |  |  | 
CCCCOP(=O)(OCCCC)OP(=O)(O)OP(=O)(O)OP(=O)(O)OC[C@@H]1C=C[C@H](n2cc(C)c(=O)[nH]c2=O)O1 | 10.2 |  |  |  | 
CCCCCCCCCCCCCCCCCCOP(=O)(OCC(CC)CCCC)OP(=O)(O)OP(=O)(O)OP(=O)(O)OC[C@@H]1C=C[C@H](n2cc(C)c(=O)[nH]c2=O)O1 (some centres not stated) | 15.2 |  |  |  | 
CCCCCCCCCCCCCCCCCCOP(=O)(OCCCC)OP(=O)(O)OP(=O)(O)OP(=O)(O)OC[C@@H]1C=C[C@H](n2cc(C)c(=O)[nH]c2=O)O1 (some centres not stated) | 14.5 |  | Metabolite_Detected | Metabolite_Detected | Drug metabolism [6]: Metabolite_Detected; t1/2 [8]: 38 min
CCCCCCCCCCCCCCCCCCP(=O)(OCc1ccc(OC(=O)CCCC)cc1)OP(=O)(O)OP(=O)(O)OP(=O)(O)OC[C@@H]1C=C[C@H](n2cc(C)c(=O)[nH]c2=O)O1 (some centres not stated) | 15.2 |  | Metabolite_Detected | Metabolite_Detected | Drug metabolism [10]: Metabolite_Detected; Drug metabolism [11]: Metabolite_Detected; EC50 [4]: 0.006 µM; Drug metabolism [12]: Metabolite_Detected
CCCCCCCCCCCCCCCCCCP(=O)(O)OP(=O)(O)OP(=O)(O)OP(=O)(O)OC[C@@H]1C=C[C@H](n2cc(C)c(=O)[nH]c2=O)O1 | 13.2 | 105 |  |  | 
Cc1cn([C@H]2C=C[C@@H](CO)O2)c(=O)[nH]c1=O [STAVUDINE] |  | 1 |  |  | selectivity ratio [13]: 1
CCCCCCCCCCCCCCCCCCOP(=O)(OCc1ccc(OC(=O)CCCC)cc1)OP(=O)(O)OP(=O)(O)OP(=O)(O)OC[C@@H]1C=C[C@H](n2cc(C)c(=O)[nH]c2=O)O1 (some centres not stated) | 15.3 |  | Metabolite_Detected | Metabolite_Detected | Drug metabolism [14]: Metabolite_Detected; Drug metabolism [15]: Metabolite_Detected; Drug metabolism [16]: Metabolite_Detected; Drug metabolism [17]: Metabolite_Detected; Drug metabolism [12]: Metabolite_Detected
